Converted amounts (≈) assume the structure as drawn. Like-named read-outs stand apart in the source and are kept apart here.
How the values were obtained:
[1] = cited from earlier work; for undesirable side effects: clinical
[2] = test system: DNA type viruses such as herpes simplex and vaccinia; details: clinical use; cited from earlier work
[3] = test system: vaccinia virus IHD strain; assay type: in vivo, mice (ICR strain); details: -2 to 100 hours after virus challenge, 12 days observation; for Survival rate, PO: 100 mg/kg orally; for Survival rate, SC: 100 mg/kg subcutaneously
[4] = test system: vaccinia virus IHD strain; experiment: microbe, parasite or virus in culture; assay type: cell-based; details: for MIC: Orthopoxvirus vaccinia, in Gallus gallus, 72 h, read-out: minimum inhibitory concentration (MIC); for Chemotherapeutic index (MTC/MIC): chick embryo fibroblast cells, 4320 min
[5] = Acute toxicity in mice, intraperitoneal; assay type: in vivo, mice (ddN strain); details: for No. of survivors/No. of tested: 7 days observation
Excerpt: The compounds of the present invention are not only very effective but also show no side effects. For example, acute toxicity of the present compound by the intraperitoneal injection in mice is remarkably lower than Methisazone as shown in Table III.
animals: male mice weighing 17 to 20 g of ddN strain
administration: intraperitoneally, suspension in 0.5% carboxymethyl
observation period: 7 days after an administration

[6] = Toxic effects in chick embryo fibroblast cell culture (minimum toxic concentration); details: chicken, chick embryo fibroblast cells
[7] = test system: parainfluenza virus type 1, Sendai virus; experiment: Effects on parainfluenza virus multiplication in chick embryo fibroblast cell culture (haemagglutinating titration); assay type: cell-based; details: 2 days at 37° C, non-medicated control 32
Experimental: Effects on parainfluenza virus multiplication in chick embryo fibroblast cell culture.
A general procedure of haemagglutinating titration was employed. Monolayers of chick embryo fibroblast cells were prepared by the same procedure as described in Example 12. Parainfluenza virus type 1, haemagglutinating virus of Japan (HVJ), so called Sendai virus was challenged on 3rd day monolayer cell sheet. […] After 2 days' incubation at 37° C., the cells were harvested, disrupted by freezing and thawing and centrifuged. The haemagglutinating titre of the supernatant was assayed using 1% guinea pig red blood cell as usual.
cells: chick embryo fibroblast cell
virus: parainfluenza virus type 1, Sendai virus

[8] = test system: adeno virus type 8 Kanehisa strain; details: concentration 40; 5th day after infection; non-medicated control 512
[9] = test system: herpes simplex virus HF strain; experiment: Effects on herpes simplex virus multiplication in chick embryo fibroblast cell culture (plaque reduction); assay type: cell-based; details: 5 μg/ml, 4 days at 37° C; for Average number of plaques: non-medicated control 45; for inhibition at 5 µg/mL: Fibroblast, 96 h, read-out: Percentage inhibition of occurrences of plaques
Experimental: Effects on herpes simplex virus multiplication in chick embryo fibroblast cell culture.
A general procedure of plaque-reduction method was employed. Monolayers of chick embryo fibroblast cells were prepared by a general procedure, i.e., trypsinization of 10 day old chick embryo and then 2 days' incubation in Eagle's minimum essential medium (Eagle's MEM) containing a 5% calf serum at 37° C. in a plaque tube. Then, growth medium was discarded and about 100 plaque forming units (PFU) of herpes simplex virus HF strain per plaque tube were challenged. […] After 4 day's incubation at 37° C., the number of plaques was counted and compared with the controlled plaque tube without test compounds.
cells: chick embryo fibroblast cells
virus: herpes simplex virus HF strains
observation: by counting the number of plaques after 4 days' incubation

[10] = test system: Influenza virus NWS strain; assay type: in vivo, mice (ICR strain); details: 14 days observation, control 1/8

NC12CC3CC(CC(C3)C1)C2 [Amantadine]
undesirable side effects [1]: severe side effect on central nervous system

O=c1[nH]c(=O)n([C@H]2C[C@H](O)[C@@H](CO)O2)cc1I [Idoxuridine]
antiviral spectrum [2]: only effective against DNA type viruses such as herpes simplex and vaccinia | toxicity limiting use ([1]; clinical use): it can only be used by topical application because of its toxicity

CN1C(=O)C(=NNC(N)=S)c2ccccc21 [Methisazone, 1-methylindole-2,3-dione 3-thiosemicarbazone, reference compound]
undesirable side effects [1]: severe vomiting, dermatitis and jaundice | Survival rate, PO [3]: 100% | Survival rate, SC [3]: 100% | MIC [4]: 5 µg/mL (≈ 21.3 µM) | minimum inhibitory concentration (MIC) ([4]; vaccinia virus IHD strain, 1.1 × 10^4 PFU/tube, CPE after 3 days' incubation at 37° C): 5 µg/mL (≈ 21.3 µM) | Chemotherapeutic index (MTC/MIC) ([4]; vaccinia virus): 4 | No. of survivors/No. of tested ([5]; 1000 mg/kg intraperitoneally): 3/5 | No. of survivors/No. of tested ([5]; 2000 mg/kg intraperitoneally): 0/5 | gastro-duodenal hemorrhage and intestinal ulceration ([5]; mice of the acute toxicity test): Severe gastro-duodenal hemorrhage and intestinal ulceration were observed in dead mice | MCC at 72 h [6]: 20 µg/mL

O=c1nc(-c2ccccc2)c2cc([N+](=O)[O-])ccc2n1CC1CCCCCC1 [compound 1]
MIC [4]: 0.1 µg/mL (≈ 0.265 µM) | Chemotherapeutic index (MTC/MIC) ([4]; vaccinia virus): 1000 | MCC at 72 h [6]: 100 µg/mL

O=c1nc(-c2ccccc2)c2cc([N+](=O)[O-])ccc2n1C1CCCCC1 [compound 2]
MIC [4]: 0.1 µg/mL (≈ 0.286 µM) | Chemotherapeutic index (MTC/MIC) ([4]; vaccinia virus): 1000 | MCC at 72 h [6]: 100 µg/mL | Haemagglutinating titre ([7]; 12.5 μg/ml): 4 | Haemagglutinating titre ([7]; 25 μg/ml): 2

O=c1nc(-c2ccccc2)c2cc([N+](=O)[O-])ccc2n1CC1CCCCC1 [compound 3]
Haemagglutinating titre [8]: 32 | Survival rate, PO [3]: 100% | Survival rate, SC [3]: 100% | MIC [4]: 0.1 µg/mL (≈ 0.275 µM) | Chemotherapeutic index (MTC/MIC) ([4]; vaccinia virus): 1000 | MCC at 72 h [6]: 100 µg/mL

O=c1nc(-c2ccccc2)c2cc([N+](=O)[O-])ccc2n1CC1CCCCCCC1 [compound 4]
MIC [4]: 0.1 µg/mL (≈ 0.255 µM) | Chemotherapeutic index (MTC/MIC) ([4]; vaccinia virus): 1000 | MCC at 72 h [6]: 100 µg/mL

O=c1nc(-c2ccccc2)c2cc([N+](=O)[O-])ccc2n1CC1CCCCO1 (centres unmarked) [compound 5]
Average number of plaques [9]: 9 | inhibition at 5 µg/mL [9]: 80% | Haemagglutinating titre [8]: 64 | Survival rate, SC [3]: 100% | MIC [4]: 0.2 µg/mL (≈ 0.547 µM) | Chemotherapeutic index (MTC/MIC) [4]: > 500 | No. of survivors/No. of tested ([5]; 1000 mg/kg intraperitoneally): 5/5 | No. of survivors/No. of tested ([5]; 2000 mg/kg intraperitoneally): 4/5 | Survival rate ([10]; 10 mg/kg subcutaneously): 4/8 | Survival rate ([10]; 50 mg/kg subcutaneously): 6/8 | MCC at 72 h [6]: > 100 µg/mL | Haemagglutinating titre ([7]; 12.5 μg/ml): 4 | Haemagglutinating titre ([7]; 25 μg/ml): < 2

O=c1nc(-c2ccccc2)c2cc([N+](=O)[O-])ccc2n1Cc1ccccn1 [compound 6]
MIC [4]: 0.2 µg/mL (≈ 0.558 µM) | Chemotherapeutic index (MTC/MIC) ([4]; vaccinia virus): 250 | MCC at 72 h [6]: 50 µg/mL

O=c1nc(-c2ccccc2)c2cc([N+](=O)[O-])ccc2n1CC1CCCC1 [compound 7]
MIC [4]: 0.2 µg/mL (≈ 0.572 µM) | Chemotherapeutic index (MTC/MIC) ([4]; vaccinia virus): > 500 | MCC at 72 h [6]: > 100 µg/mL

O=c1nc(-c2ccccc2)c2cc([N+](=O)[O-])ccc2n1Cc1ccccc1Cl [compound 8]
MIC [4]: 0.25 µg/mL (≈ 0.638 µM) | Chemotherapeutic index (MTC/MIC) ([4]; vaccinia virus): 20 | MCC at 72 h [6]: 5 µg/mL

Cc1ccccc1Cn1c(=O)nc(-c2ccccc2)c2cc([N+](=O)[O-])ccc21 [compound 9]
Average number of plaques [9]: 2 | inhibition at 5 µg/mL [9]: 96% | MIC [4]: 0.25 µg/mL (≈ 0.673 µM) | Chemotherapeutic index (MTC/MIC) ([4]; vaccinia virus): 20 | MCC at 72 h [6]: 5 µg/mL

O=c1nc(-c2cccs2)c2cc([N+](=O)[O-])ccc2n1CC1CCCCO1 (centres unmarked) [compound 10]
MIC [4]: 0.4 µg/mL (≈ 1.08 µM) | Chemotherapeutic index (MTC/MIC) ([4]; vaccinia virus): > 250 | MCC at 72 h [6]: > 100 µg/mL

O=c1nc(-c2ccccc2)c2cc([N+](=O)[O-])ccc2n1Cc1ccccc1 [compound 11]
Survival rate, SC [3]: 100% | MIC [4]: 0.6 µg/mL (≈ 1.68 µM) | Chemotherapeutic index (MTC/MIC) ([4]; vaccinia virus): 40 | MCC at 72 h [6]: 25 µg/mL

O=c1nc(-c2ccccc2)c2cc([N+](=O)[O-])ccc2n1Cc1cccs1 [compound 12]
MIC [4]: 0.6 µg/mL (≈ 1.65 µM) | Chemotherapeutic index (MTC/MIC) ([4]; vaccinia virus): 80 | MCC at 72 h [6]: 50 µg/mL

O=c1nc(-c2ccccc2)c2cc([N+](=O)[O-])ccc2n1Cc1ccco1 [compound 13]
MIC [4]: 1 µg/mL (≈ 2.88 µM) | Chemotherapeutic index (MTC/MIC) ([4]; vaccinia virus): 100 | MCC at 72 h [6]: 100 µg/mL

O=c1nc(-c2ccccc2)c2cc([N+](=O)[O-])ccc2n1CC1CCCO1 (centres unmarked) [compound 14]
Haemagglutinating titre [8]: 32 | Survival rate, SC [3]: 100% | MIC [4]: 1.25 µg/mL (≈ 3.56 µM) | Chemotherapeutic index (MTC/MIC) ([4]; vaccinia virus): > 80 | No. of survivors/No. of tested ([5]; 1000 mg/kg intraperitoneally): 5/5 | No. of survivors/No. of tested ([5]; 2000 mg/kg intraperitoneally): 4/5 | MCC at 72 h [6]: > 100 µg/mL

O=c1nc(-c2ccccc2)c2cc([N+](=O)[O-])ccc2n1CCC1CCCCC1 [compound 15]
MIC [4]: 5 µg/mL (≈ 13.2 µM) | Chemotherapeutic index (MTC/MIC) ([4]; vaccinia virus): > 20 | MCC at 72 h [6]: > 100 µg/mL

CCN(CC)C(=O)Cn1c(=O)nc(-c2ccccc2)c2cc([N+](=O)[O-])ccc21 [compound 17]
MIC [4]: 5 µg/mL (≈ 13.1 µM) | Chemotherapeutic index (MTC/MIC) ([4]; vaccinia virus): > 20 | MCC at 72 h [6]: > 100 µg/mL

O=c1nc(-c2ccccc2)c2cc([N+](=O)[O-])ccc2n1CC1CC1 [compound 18]
MIC [4]: 5 µg/mL (≈ 15.6 µM) | Chemotherapeutic index (MTC/MIC) ([4]; vaccinia virus): > 20 | MCC at 72 h [6]: > 100 µg/mL

CCOCCn1c(=O)nc(-c2ccccc2)c2cc([N+](=O)[O-])ccc21 [compound 19]
MIC [4]: 5 µg/mL (≈ 14.7 µM) | Chemotherapeutic index (MTC/MIC) ([4]; vaccinia virus): > 20 | MCC at 72 h [6]: > 100 µg/mL

O=c1nc(-c2ccccc2Cl)c2cc([N+](=O)[O-])ccc2n1CC1CC1 [compound 20]
MIC [4]: 5 µg/mL (≈ 14.1 µM) | Chemotherapeutic index (MTC/MIC) ([4]; vaccinia virus): 10 | MCC at 72 h [6]: 50 µg/mL

O=c1nc(C2CCCCC2)c2cc([N+](=O)[O-])ccc2n1CC1CC1 [compound 21]
MIC [4]: 5 µg/mL (≈ 15.3 µM) | Chemotherapeutic index (MTC/MIC) ([4]; vaccinia virus): 10 | MCC at 72 h [6]: 50 µg/mL

CSCn1c(=O)nc(-c2ccccc2)c2cc([N+](=O)[O-])ccc21 [compound 22]
MIC [4]: 5 µg/mL (≈ 15.3 µM) | Chemotherapeutic index (MTC/MIC) ([4]; vaccinia virus): 10 | MCC at 72 h [6]: 50 µg/mL
